ChEMBL document CHEMBL5465560, “Selectivity Literature for EUbOPEN Chemogenomic Library” (2024)
Each block holds one molecule with its values, some of them ahead of it.

What was measured:
[1] = target: T1, Mitogen-activated protein kinase kinase kinase 5 (Homo sapiens) (UniProt Q99683); assay: Selectivity interaction (KinomeScan (DiscoverX)) EUB0000090b MAP3K5; settings: at 1 µM
T1 sequence (whole entry): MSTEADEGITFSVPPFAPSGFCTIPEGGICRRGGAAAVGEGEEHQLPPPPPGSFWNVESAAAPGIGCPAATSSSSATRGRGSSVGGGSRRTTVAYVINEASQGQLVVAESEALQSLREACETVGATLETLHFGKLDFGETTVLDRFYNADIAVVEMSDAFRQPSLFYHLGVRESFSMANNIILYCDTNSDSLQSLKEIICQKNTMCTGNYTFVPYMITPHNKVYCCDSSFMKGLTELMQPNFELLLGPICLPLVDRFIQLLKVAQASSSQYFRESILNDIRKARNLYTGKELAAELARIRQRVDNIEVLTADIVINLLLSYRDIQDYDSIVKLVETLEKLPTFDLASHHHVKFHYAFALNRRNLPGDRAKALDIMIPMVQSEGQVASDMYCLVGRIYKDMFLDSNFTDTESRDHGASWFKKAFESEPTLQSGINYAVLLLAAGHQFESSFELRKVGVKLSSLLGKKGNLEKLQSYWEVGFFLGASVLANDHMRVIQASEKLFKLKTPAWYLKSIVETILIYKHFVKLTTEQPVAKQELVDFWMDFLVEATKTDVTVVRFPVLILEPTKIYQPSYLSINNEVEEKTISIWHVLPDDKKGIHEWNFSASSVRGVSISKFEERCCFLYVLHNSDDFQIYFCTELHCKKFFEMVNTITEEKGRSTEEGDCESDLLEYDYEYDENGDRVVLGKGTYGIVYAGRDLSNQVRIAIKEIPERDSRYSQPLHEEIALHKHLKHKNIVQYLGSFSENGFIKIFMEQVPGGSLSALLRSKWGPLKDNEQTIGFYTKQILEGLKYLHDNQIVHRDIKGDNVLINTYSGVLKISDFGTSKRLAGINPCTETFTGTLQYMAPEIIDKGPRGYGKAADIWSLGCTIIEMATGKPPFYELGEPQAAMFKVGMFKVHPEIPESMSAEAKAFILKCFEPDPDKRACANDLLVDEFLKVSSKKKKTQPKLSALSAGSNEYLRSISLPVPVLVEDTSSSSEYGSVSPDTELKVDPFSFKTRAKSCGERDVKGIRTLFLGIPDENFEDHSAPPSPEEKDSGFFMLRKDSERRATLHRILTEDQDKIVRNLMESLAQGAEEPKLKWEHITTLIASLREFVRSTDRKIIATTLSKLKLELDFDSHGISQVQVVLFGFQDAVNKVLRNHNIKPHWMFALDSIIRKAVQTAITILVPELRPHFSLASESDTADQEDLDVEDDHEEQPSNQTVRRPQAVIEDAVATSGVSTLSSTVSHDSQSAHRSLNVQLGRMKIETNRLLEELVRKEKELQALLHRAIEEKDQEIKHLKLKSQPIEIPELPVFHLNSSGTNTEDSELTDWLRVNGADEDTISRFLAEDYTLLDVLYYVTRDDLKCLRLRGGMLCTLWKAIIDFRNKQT

[2] = tested on: Tyrosine-protein kinase ABL1 (Homo sapiens), P00519 [T315I]; assay: Selectivity interaction (KinomeScan (DiscoverX)) EUB0000607a ABL1; settings: at 10 µM
[3] = target: T2, Membrane-associated tyrosine- and threonine-specific cdc2-inhibitory kinase (Homo sapiens) (UniProt Q99640); assay: Selectivity interaction (KinomeScan (DiscoverX)) EUB0000045b PKMYT1
T2 sequence (whole entry): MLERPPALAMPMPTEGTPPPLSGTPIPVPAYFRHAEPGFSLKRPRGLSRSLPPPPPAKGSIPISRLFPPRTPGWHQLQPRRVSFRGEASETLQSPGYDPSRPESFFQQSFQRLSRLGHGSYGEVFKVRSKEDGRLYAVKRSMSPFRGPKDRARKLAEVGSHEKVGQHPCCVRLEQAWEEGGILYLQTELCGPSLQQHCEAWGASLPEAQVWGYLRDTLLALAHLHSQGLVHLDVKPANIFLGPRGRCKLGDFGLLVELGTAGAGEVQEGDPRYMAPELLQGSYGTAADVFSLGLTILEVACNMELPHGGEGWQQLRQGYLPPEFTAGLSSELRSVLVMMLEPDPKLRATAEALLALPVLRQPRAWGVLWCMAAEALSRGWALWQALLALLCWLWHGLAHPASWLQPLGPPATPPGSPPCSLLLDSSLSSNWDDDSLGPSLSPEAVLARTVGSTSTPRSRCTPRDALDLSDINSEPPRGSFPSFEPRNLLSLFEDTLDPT

[4] = target: T3, Aurora kinase A (Homo sapiens) (UniProt O14965); assay: Selectivity interaction (ActivX KiNativ screen (kinase selectivity in THP-1 cell lysates)) EUB0000639a STK6; assay type: subcellular; settings: lysate, at 0.01 µM
T3 sequence (whole entry): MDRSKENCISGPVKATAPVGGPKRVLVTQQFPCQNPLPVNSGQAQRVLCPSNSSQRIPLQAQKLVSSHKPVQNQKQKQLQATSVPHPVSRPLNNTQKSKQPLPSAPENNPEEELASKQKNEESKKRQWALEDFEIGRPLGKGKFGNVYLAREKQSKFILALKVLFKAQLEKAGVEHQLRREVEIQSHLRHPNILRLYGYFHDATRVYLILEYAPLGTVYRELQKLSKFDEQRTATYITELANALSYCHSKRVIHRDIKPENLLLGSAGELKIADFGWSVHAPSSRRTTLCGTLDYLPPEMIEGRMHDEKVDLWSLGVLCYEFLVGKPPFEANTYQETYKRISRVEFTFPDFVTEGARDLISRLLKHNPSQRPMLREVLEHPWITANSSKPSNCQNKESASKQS

[5] = target: Protein-tyrosine kinase 2-beta (Homo sapiens) (UniProt Q14289); assay: Selectivity interaction (Kinase panel (Invitrogen)) EUB0000639a PTK2B; settings: at 200 nM
Protein-tyrosine kinase 2-beta (Homo sapiens), sequence (Q14289 whole entry, looked up): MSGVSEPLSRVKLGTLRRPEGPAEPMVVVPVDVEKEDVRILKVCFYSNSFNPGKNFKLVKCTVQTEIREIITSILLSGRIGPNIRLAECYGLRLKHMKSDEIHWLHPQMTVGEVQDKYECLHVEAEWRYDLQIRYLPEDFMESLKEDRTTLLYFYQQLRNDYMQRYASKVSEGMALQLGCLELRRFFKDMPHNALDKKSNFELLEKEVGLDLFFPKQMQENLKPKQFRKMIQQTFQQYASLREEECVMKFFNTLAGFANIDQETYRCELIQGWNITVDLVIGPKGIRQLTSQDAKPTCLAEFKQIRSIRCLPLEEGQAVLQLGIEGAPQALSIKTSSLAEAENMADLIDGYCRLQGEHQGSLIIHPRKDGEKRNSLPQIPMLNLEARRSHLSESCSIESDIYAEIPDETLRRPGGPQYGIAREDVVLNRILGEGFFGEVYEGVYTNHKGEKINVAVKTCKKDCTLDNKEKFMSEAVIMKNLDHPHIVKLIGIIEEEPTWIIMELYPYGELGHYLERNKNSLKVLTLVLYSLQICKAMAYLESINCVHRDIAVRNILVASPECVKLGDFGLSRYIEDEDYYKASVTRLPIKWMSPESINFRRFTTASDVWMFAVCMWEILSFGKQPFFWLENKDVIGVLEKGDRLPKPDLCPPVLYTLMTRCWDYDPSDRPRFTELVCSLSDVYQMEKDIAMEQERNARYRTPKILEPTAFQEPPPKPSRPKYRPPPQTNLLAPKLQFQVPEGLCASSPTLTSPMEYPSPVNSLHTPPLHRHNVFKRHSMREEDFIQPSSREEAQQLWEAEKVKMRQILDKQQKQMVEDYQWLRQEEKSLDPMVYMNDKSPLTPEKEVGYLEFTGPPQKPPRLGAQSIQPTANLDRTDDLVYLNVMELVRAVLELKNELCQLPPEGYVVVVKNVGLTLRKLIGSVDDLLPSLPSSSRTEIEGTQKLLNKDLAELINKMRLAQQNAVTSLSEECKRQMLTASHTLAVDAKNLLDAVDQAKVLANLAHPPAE

SMILES: CN(C)C/C=C/C(=O)Nc1ccc(C(=O)N2CCCC(Nc3ncc(Cl)c(-c4c[nH]c5ccccc45)n3)C2)cc1 (stereo unspecified)
% of control [1]: 88%

SMILES: CNC(=O)Nc1ccc(-c2nc(N3CC4CCC(C3)O4)c3cnn(C4CCC5(CC4)OCCO5)c3n2)cc1
% of control [2]: 80%

SMILES: C=CC(=O)Nc1cc(-n2c(=O)ccc3cnc4ccc(-c5ccc(NS(C)(=O)=O)cc5)cc4c32)ccc1C
% of control ([3]; at 1 µM): 77%
% of control ([3]; at 10 µM): 100%

% of inhibition [4]: -3.4%
% of inhibition [5]: -0.0574%
SMILES: CC[C@@H]1[C@H](F)C(=O)N[C@@H]1COc1nccc2cc(C(N)=O)c(OC)cc12 [ZIMLOVISERTIB]
